Laboratory results: PMC10522709, “Rational design and characterization of cell-selective antimicrobial peptides based on a bioactive peptide from Crocodylus siamensis hemoglobin” (Scientific Reports, 2023)
Read-outs that look alike come from different tables or passages of the source. Ends that are not written are not given here.

Assays:
Format in all cases: cell-based
[1] = test system: Bacillus subtilis (ATCC 6633); details: ATCC 6633, 24 h
Description: (§1) Broth microdilution assays were performed as reported previously. In short, the bacteria including Escherichia coli (ATCC 25922), Klebsiella pneumoniae (ATCC 27736), Pseudomonas aeruginosa (ATCC 27853), Bacillus subtilis (ATCC 6633), Staphylococcus aureus (ATCC 25923) and Staphylococcus epidermidis (ATCC 12228) were grown in Nutrient broth to mid-log phase at 37 °C. The bacterial suspension (50 μL, concentration of 1 × 10^6 CFU/mL) was loaded into a well with serially diluted peptide (50 µL, final concentrations ranging from 0–200 μg/mL) in a sterile 96-well plate and incubated at 37 °C for 18 h. The optical density (OD) at 600 nm was measured using a microplate reader (ALLSHENG, Zhejiang, China) in order to determine the growth of the bacteria. The inhibition was estimated using the formula; %inhibition=OD600ofcontrol-OD600ofsample/OD600ofcontrol-OD600ofblank×100 where minimal inhibitory concentration (MIC) is defined as the minimum concentration that inhibited 90% of bacterial growth.
(§2) In order to evaluate the minimal bactericidal concentration (MBC)—the lowest concentration that terminates the growth of bacteria on an agar plate—of the peptide, co-culture medium (100 μL) from each well after the microdilution assay was spread on a nutrient agar plate. Plates were maintained at 37 °C for 24 h and the number of colonies formed was counted to evaluate antimicrobial activity.

[2] = test system: Escherichia coli (ATCC 25922); details: ATCC 25922, 24 h
Description: as §1, §2

[3] = test system: Klebsiella pneumoniae (ATCC 27736); details: ATCC 27736, 24 h
Description: as §1, §2

[4] = test system: Pseudomonas aeruginosa (ATCC 27853); details: ATCC 27853, 24 h
Description: as §1, §2

[5] = test system: Staphylococcus aureus (ATCC 25923); details: ATCC 25923, 24 h
Description: as §1, §2

[6] = test system: Staphylococcus epidermidis (ATCC 12228); details: ATCC 12228, 24 h
Description: as §1, §2

[7] = test system: Bacillus subtilis (ATCC 6633); details: ATCC 6633, 18 h
Description: as §1

[8] = test system: Escherichia coli (ATCC 25922); details: ATCC 25922, 18 h
Description: as §1

[9] = test system: Klebsiella pneumoniae (ATCC 27736); details: ATCC 27736, 18 h
Description: as §1

[10] = test system: Pseudomonas aeruginosa (ATCC 27853); details: ATCC 27853, 18 h
Description: as §1

[11] = test system: Staphylococcus aureus (ATCC 25923); details: ATCC 25923, 18 h
Description: as §1

[12] = test system: Staphylococcus epidermidis (ATCC 12228); details: ATCC 12228, 18 h
Description: as §1

[13] = test system: several bacterial strains; details: for MIC, over all strains tested: 18 h
Description: as §1

human erythrocytes = details: red cells of human, 1 h
Description: Human whole blood was obtained from Blood Transfusion Center Faculty of Medicine Khon Kaen University (ethical approval number HE601010). Fresh human erythrocytes were carefully mixed with PBS (1:3) and centrifuged at 1000 × g for 2 min. The supernatant was discarded and the cell pellet was resuspended to 2% w/v in PBS. 100 µL of the resuspended erythrocytes were incubated with the peptide (10 µL, final concentrations ranging from 12.5 to 100 μg/mL, two-fold serial dilution) at 37 °C for 1 h. After the treatment, the plate was centrifuged and the supernatant was taken to determine the optical density at 415 nm using a microplate reader (ALLSHENG, Zhejiang, China). The positive control for this assay was the addition of Triton X-100 (1% v/v), which causes 100% hemolysis. The negative control was cells treated with PBS buffer only. The hemolysis activity was estimated using the equation: %hemolysis=OD415ofsample/OD415ofTritonX-100treatedcontrol×100

[14] = test system: human keratinocyte cells (HaCaT); details: 24 h
Description: (§3) Human peripheral blood mononuclear cells (PBMC), African green monkey kidney cells (Vero), human keratinocyte cells (HaCaT) and mouse preadipocytes (3T3-L1) were used to evaluate the cytotoxicity of peptides by the MTT assay. PBMCs were isolated using Ficoll medium (GE Healthcare, Uppsala, Sweden) as described by Jangpromma et al.[28]. The PBMCs were then cultured in RPMI 1640, while Vero, HaCaT and 3T3-L1 cells were cultured in DMEM. All culture mediums were supplemented with 10% heat-inactivated fetal bovine serum (FBS) and 1% antibiotic:antimycotic (Gibco, USA). The cells were cultured at 37 °C with 5% CO2/95% relative humidity. After that, PBMC (2 × 10^6 cells/well), Vero (1 × 10^4 cells/well), HaCaT (1 × 10^4 cells/well) and 3T3-L1 (1 × 10^4 cells/well) were individually seeded into 96-well plate and cultured at 37 °C overnight. Next, two-fold serially diluted peptides (3.13–200 μg/mL) were added to the cell culture. After incubation in 5% (v/v) CO2 incubator for 24 h, the medium culture was removed and MTT solution ([…] final concentration in fresh medium culture) was added to the cells and incubated for 30 min. Thereafter, the medium was removed and DMSO (100 µL) was added to each well to dissolve the formazan crystals. The optical density at 570 nm was determined using a microplate reader (ALLSHENG, Zhejiang, China). The cytotoxicity of IL15.3 against Vero, HaCaT and 3T3-L1 cells in the absence of FBS was also measured by the MTT assay to confirm the peptide is not sequestered by proteins in the serum causing artificially low cytotoxicity against eukaryotic cells.
(§4) Cell viability was determined using the equation: %cellviability=OD570ofsample/OD570ofuntreatedcontrol×100
(§5) GraphPad Prism8 (San Diego, CA, USA) was used to calculate IC50 values using a non-linear regression model.

[15] = test system: human peripheral blood mononuclear cells (PBMC); details: 24 h
Description: as §3, §4, §5

With IIHNEKVQAHGKKVL [IL15] the MBC [1] was > 200 µg/mL, the MBC [2] was > 200 µg/mL and the MBC [3] was > 200 µg/mL. For the same sequence, the MBC [4] was > 200 µg/mL, the MBC [5] was > 200 µg/mL and the MBC [6] was > 200 µg/mL. The MIC [7] was > 200 µg/mL, the MIC [8] was > 200 µg/mL and the MIC [9] was > 200 µg/mL. For the same sequence, the MIC [10] was > 200 µg/mL, the MIC [11] was > 200 µg/mL and the MIC [12] was > 200 µg/mL. For the same sequence, the “MIC, over all strains tested” value [13] was > 200 µg/mL, the “Hemolysis concentration50 (HC50)” value (human erythrocytes) was >2000 µg/mL and the “IC50 HaCaT” value [14] was >200 µg/mL. For the same sequence, the “IC50 PBMC” value [15] was >200 µg/mL.

For IKHWEKVWKHGKKVL [IL15.1], the MBC [1] was > 200 µg/mL, the MBC [2] was > 200 µg/mL and the MBC [3] was > 200 µg/mL. For the same sequence, the MBC [4] was > 200 µg/mL, the MBC [5] was > 200 µg/mL and the MBC [6] was > 200 µg/mL. For the same sequence, the MIC [7] was > 200 µg/mL, the MIC [8] was > 200 µg/mL and the MIC [9] was > 200 µg/mL. For the same sequence, the MIC [10] was > 200 µg/mL, the MIC [11] was > 200 µg/mL and the MIC [12] was > 200 µg/mL. The “MIC, over all strains tested” value [13] was > 200 µg/mL, the “Hemolysis concentration50 (HC50)” value (human erythrocytes) was >2000 µg/mL and the “IC50 HaCaT” value [14] was >200 µg/mL. The “IC50 PBMC” value [15] was >200 µg/mL.

For QAIIHNEKVQAHGKKVL [QL17], the MBC [1] was > 200 µg/mL, the MBC [2] was > 200 µg/mL and the MBC [3] was > 200 µg/mL. The MBC [4] was > 200 µg/mL, the MBC [5] was > 200 µg/mL and the MBC [6] was > 200 µg/mL. For the same sequence, the MIC [7] was > 200 µg/mL, the MIC [8] was > 200 µg/mL and the MIC [9] was > 200 µg/mL. The MIC [10] was > 200 µg/mL, the MIC [11] was > 200 µg/mL and the MIC [12] was > 200 µg/mL. The “MIC, over all strains tested” value [13] was > 200 µg/mL, the “Hemolysis concentration50 (HC50)” value (human erythrocytes) was >2000 µg/mL and the “IC50 HaCaT” value [14] was >200 µg/mL. For the same sequence, the “IC50 PBMC” value [15] was >200 µg/mL.

With IKHWKKVWKHGKKVL [IL15.2] the MBC [1] was 60 µg/mL, the MBC [2] was 150 µg/mL and the MBC [3] was > 200 µg/mL. The MBC [4] was > 200 µg/mL, the MBC [5] was > 200 µg/mL and the MBC [6] was > 200 µg/mL. The MIC [7] was 50 µg/mL, the MIC [8] was 100 µg/mL and the MIC [9] was > 200 µg/mL. For the same sequence, the MIC [10] was > 200 µg/mL, the MIC [11] was > 200 µg/mL and the MIC [12] was > 200 µg/mL. For the same sequence, the “Hemolysis concentration50 (HC50)” value (human erythrocytes) was >2000 µg/mL, the “IC50 HaCaT” value [14] was >200 µg/mL and the “IC50 PBMC” value [15] was >200 µg/mL.

IRHWRRVWRHWRRRL [IL15.5] was tested, and the MBC [1] was 12 µg/mL, the MBC [2] was 25 µg/mL and the MBC [3] was 100 µg/mL. The MBC [4] was 50 µg/mL, the MBC [5] was 50 µg/mL and the MBC [6] was 15 µg/mL. It also gave an MIC [7] of 8 µg/mL, an MIC [8] of 15 µg/mL and an MIC [9] of 75 µg/mL. The MIC [10] was 35 µg/mL, the MIC [11] was 25 µg/mL and the MIC [12] was 12 µg/mL. The “MIC, over all strains tested” value [13] was 8 to 75 µg/mL, the “Hemolysis concentration50 (HC50)” value (human erythrocytes) was 896 µg/mL and the “IC50 HaCaT” value [14] was 200 µg/mL. The “IC50 PBMC” value [15] was 113 µg/mL.

IKHWKKVWKHWKKKL [IL15.4] showed an MBC [1] of 10 µg/mL, an MBC [2] of 6 µg/mL and an MBC [3] of 50 µg/mL. It also gave an MBC [4] of 14 µg/mL, an MBC [5] of 25 µg/mL and an MBC [6] of 12 µg/mL. For the same sequence, the MIC [7] was 6 µg/mL, the MIC [8] was 4 µg/mL and the MIC [9] was 14 µg/mL. It also gave an MIC [10] of 10 µg/mL, an MIC [11] of 12 µg/mL and an MIC [12] of 9 µg/mL. For the same sequence, the “increase of SI in comparison with IL15.2” value ([13]; towards gram-negative bacteria) was “approximately 6 fold”, the “increase of SI in comparison with IL15.2” value ([13]; towards gram-positive bacteria) was ~25 fold and the “Hemolysis concentration50 (HC50)” value (human erythrocytes) was >2000 µg/mL. The “IC50 HaCaT” value [14] was >200 µg/mL and the “IC50 PBMC” value [15] was >200 µg/mL.
